From patent publication US12090143B1, “4-chloro-N′-(2-(5-phenyl-1,3,4-oxadiazol-2-ylthio)acetoxy)benzimidamide as an antimicrobial compound” (KING FAISAL UNIVERSITY, priority 2023, dated 2024)

Experiments:
Assay type in all cases: cell-based
[1] = test system: Pseudomonas aeruginosa; test: Agar plate disc-diffusion, antibacterial, Pseudomonas aeruginosa; settings: nutrient agar, 37° C., 48 hours, DMSO zone subtracted
Experimental: (§1) The agar plate disc-diffusion method was applied. […] The discs were then placed onto the surface of agar plates (nutrient agar for bacteria and Sabouraud's dextrose agar for fungi) seeded with the test organism. Each plate contained 15 mL of the agar medium, previously seeded with 0.2 mL of the broth culture of each organism pregrown for 18 hours. The plates were incubated at 37° C. for 48 hours, and 72 hours for fungi. The inhibition zones was measured in mm. Discs impregnated with DMSO were used as a control, and its inhibition zone was subtracted from the tested compound actual inhibition zone.

[2] = test system: Chrysosporium keratinophilum; test: Agar plate disc-diffusion, antifungal, Chrysosporium keratinophilum; settings: Sabouraud's dextrose agar, 37° C., 72 hours, DMSO zone subtracted
Experimental: as §1

[3] = test system: Bacillus cereus; test: Agar plate disc-diffusion, antibacterial, Bacillus cereus; settings: nutrient agar, 37° C., 48 hours, DMSO zone subtracted
Experimental: as §1

[4] = test system: Aspergillus flavus; test: Agar plate disc-diffusion, antifungal, Aspergillus flavus; settings: Sabouraud's dextrose agar, 37° C., 72 hours, DMSO zone subtracted
Experimental: as §1

[5] = test system: Staphylococcus aureus; test: Agar plate disc-diffusion, antibacterial, Staphylococcus aureus; settings: nutrient agar, 37° C., 48 hours, DMSO zone subtracted
Experimental: as §1

[6] = test system: Escherichia coli; test: Agar plate disc-diffusion, antibacterial, Escherichia coli; settings: nutrient agar, 37° C., 48 hours, DMSO zone subtracted
Experimental: as §1

[7] = B = concentration of comp. = 30,000 μL
[8] = C = concentration of comp. = 50,000 μL
[9] = A = concentration of comp. = 10,000 μL

Q: N/C(=N\OC(=O)CSc1nnc(-c2ccccc2)o1)c1ccc(Cl)cc1 [Compound 3, 4-chloro-N′-(2-(5-phenyl-1,3,4-oxadiazol-2-ylthio)acetoxy)benzimidamide] was tested. Which “inhibition zone, Pseudomonas aeruginosa, A” value ([1]; A =) did it give?
A: 20 mm

Q: What about the “inhibition zone, Pseudomonas aeruginosa, B” value [1, 7] of the same compound?
A: 26 mm

Q: What about the “inhibition zone, Pseudomonas aeruginosa, C” value [1, 8] of the same compound?
A: 40 mm

Q: What about the “inhibition zone, Chrysosporium keratinophilum, A” value [2, 9] of the same compound?
A: 35 mm

Q: And the “inhibition zone, Chrysosporium keratinophilum, B” value [2, 7]?
A: 26 mm

Q: And the “inhibition zone, Chrysosporium keratinophilum, C” value [2, 8]?
A: 42 mm

Q: And the “inhibition zone, Bacillus Cereus, A” value [3, 9]?
A: 26 mm

Q: And the “inhibition zone, Bacillus Cereus, B” value [3, 7]?
A: 29 mm

Q: What about the “inhibition zone, Bacillus Cereus, C” value [3, 8] of the same compound?
A: 39 mm

Q: And the “inhibition zone, Aspergillus flavus, A” value [4, 9]?
A: 23 mm

Q: What about the “inhibition zone, Aspergillus flavus, B” value [4, 7] of the same compound?
A: 27 mm

Q: And the “inhibition zone, Aspergillus flavus, C” value [4, 8]?
A: 39 mm

Q: What about the “inhibition zone, Staphylococcus aureus, A” value [5, 9] of the same compound?
A: 25 mm

Q: And the “inhibition zone, Staphylococcus aureus, B” value [5, 7]?
A: 27 mm

Q: What about the “inhibition zone, Staphylococcus aureus, C” value [5, 8] of the same compound?
A: 39 mm

Q: What about the “inhibition zone, Escherichia coli, A” value ([6]; A =) of the same compound?
A: 28 mm

Q: And the “inhibition zone, Escherichia coli, B” value [6, 7]?
A: 36 mm

Q: What about the “inhibition zone, Escherichia coli, C” value [6, 8] of the same compound?
A: 53 mm
